Here are results for 3 molecules from PMC8049461, “The anti-depressant effects of a novel PDE4 inhibitor derived from resveratrol” (Pharmaceutical Biology, 2021).

Data set [1] concerns chronic unpredictable stress mice. Kind of data set: Forced swimming test (FST) after chronic unpredictable stress. It is filed as in vivo, male ICR mice. The settings on record: fluoxetine 5 mg/kg i.p., CUS mice, p < 0.05. On the procedure: Male ICR mice, weighing between 22–25 g, were obtained from the Animal Centre at Changzhou University. All experiments were carried out according to the National Institute of Health Guide for Care and Use of Laboratory Animals (1996) and were approved by the Institutional Animal Care and Use Committee of Changzhou University (NO. Y20180023). Fluoxetine and resveratrol were purchased from Sigma Chemical Co. (St Louis, MO). For animal behavioural tests, RES003 and rolipram were dissolved in saline containing 5% DMSO, 5% Solutol and 90% saline. The positive control drug fluoxetine was dissolved simply in saline. […]
(§1) After the chronic un-predictable stress (CUS) procedure, sucrose preference test was assessed on the following day, and then forced swimming test (FST) was carried out the next day. […]
According to the previous description, animals were individually placed in glass cylinders (25 cm height, 10 cm diameter) containing 10 cm depth of water at 24 ± 1 °C for 6 min, allowing for free swimming (Porsolt et al. [1978]). […] A mouse was determined to be immobile when there were only small movements necessary to keep its head above water. The immobility time was recorded during the 5 min testing period.

A further data set concerns PDE1. Kind of data set: PDE enzymatic assay (radioactive tracer, 3H-cAMP/3H-cGMP). The data set is classed as biochemical. The settings on record: 3H-cAMP or 3H-cGMP substrate, 24 °C, 30 min; read-out: IC50 against PDE1. On the procedure: (§2) All the enzymatic activities of PDEs were assayed by using ^3H- cyclic guanosine monophosphate (cGMP) or ^3H-cAMP as the substrate. PDEs were firstly incubated with the reaction mixture of 50 mmol/L Tris-hydrogen chloride (HCl), pH 7.8, 10 mmol/L magnesium chloride (MgCl2) and ^3H-cAMP or ^3H-cGMP (40, 000 cpm/assay) at 24 °C for 30 min. Then, the reaction was terminated by addition of zinc sulfate and barium hydroxide. Activity of test compounds was assessed by measuring the amount of ^3H-cGMP or ^3H-cAMP resulting from enzyme cleavage. The reaction product ^3H-AMP or ^3H-GMP was precipitated by adding barium sulfate, while unreacted ^3H-cAMP or ^3H-cGMP remained in the supernatant. Radioactivity in the supernatant was measured in 2.5 mL of ultima gold liquid scintillation. At least eight concentrations of inhibitors (0.05–500 μM) were used in the presence of suitable substrates for the measurement of half maximal inhibitory concentration IC50 values, which were calculated by non-linear regression. Each measurement was repeated three times.

The next data set has as its system PDE3. Described as above. It is filed as biochemical. The settings on record: 3H-cAMP or 3H-cGMP substrate, 24 °C, 30 min; read-out: IC50 against PDE3. The protocol:
as §2

For another data set, the system named is PDE4. Described as above. The data set is classed as biochemical. The settings on record: for IC50: 3H-cAMP or 3H-cGMP substrate, 24 °C, 30 min, read-out: IC50 against PDE4. On the procedure: as §2
The target of a further data set is PDE5 (Homo sapiens, UniProt O76074). The description is as above. The data set is classed as biochemical. The settings on record: 3H-cAMP or 3H-cGMP substrate, 24 °C, 30 min; read-out: IC50 against PDE5. The protocol:
as §2

The next data set concerns the target PDE2 (Homo sapiens, UniProt O00408). The data set is described as above. The data set is classed as biochemical. The settings on record: 3H-cAMP or 3H-cGMP substrate, 24 °C, 30 min; read-out: IC50 against PDE2. On the procedure:
as §2

Data set [2] deals with chronic unpredictable stress mice. Nature of the data set: Sucrose preference test (SPT) after chronic unpredictable stress. The data set is classed as in vivo, male ICR mice. The settings on record: RES003 5 and 10 mg/kg (medium and large dose), once a day for 10 days, CUS mice, vs model group, p < 0.01. On the procedure: (§3) Male ICR mice, weighing between 22–25 g, were obtained from the Animal Centre at Changzhou University. All experiments were carried out according to the National Institute of Health Guide for Care and Use of Laboratory Animals (1996) and were approved by the Institutional Animal Care and Use Committee of Changzhou University (NO. Y20180023). Fluoxetine and resveratrol were purchased from Sigma Chemical Co. (St Louis, MO). For animal behavioural tests, RES003 and rolipram were dissolved in saline containing 5% DMSO, 5% Solutol and 90% saline. The positive control drug fluoxetine was dissolved simply in saline. Mice were given intra-gastric (i.g.) administration (RES003: 2.5, 5.0 and 10 mg/kg) or intraperitoneal (i.p.) injections (fluoxetine: 5 mg/kg and rolipram: 10 mg/kg) in a volume of 10 mL/kg body weight.
(§4) The chronic unpredictable stress procedure was carried out as described previously with minor modification (Polster and Fiskum [2004]). […]
as §1
The SPT was performed according to the previous description with minor modification (Yu et al. [2013]). […] The sucrose preference was calculated as the ratio of the consumed sucrose solution to the total amount of liquid consumed.

Another data set relates to pCREB/CREB. Nature of the data set: Western blot of pCREB/CREB in brain tissue of CUS mice. It is filed as in vivo, male ICR mice. The settings on record: RES003 10 mg/kg, vs model group, p < 0.05. On the procedure: as §3, §4, §1
(§5) The brain tissues were dissected and stored at −80 °C until analysis after mice were sacrificed. […] The detection and quantification of specific bands were performed using a fluorescence scanner and ‘Image-Pro’ software. […]
On the technique in general: In western blotting, separated proteins are transferred to a membrane and probed.

In a further data set the test system is BDNF. Kind of data set: Western blot of BDNF expression in brain tissue of CUS mice. It is filed as in vivo, male ICR mice. The settings on record: RES003 5 and 10 mg/kg, vs model group, p < 0.05 and 0.01. The protocol: as §3, §4, §1, §5
The test system of the next data set is mice. Nature of the data set: Locomotor activity (LA) test, open-field chamber. The data set is classed as in vivo, male ICR mice. The settings on record: RES003 at the dose that significantly reduced immobility response, 30 min before test. On the procedure:
as §3
LA test was assessed using an open-field chamber according to previous procedure (Li et al. [2014]). The floor of the chamber was divided into 16 identical squares. Mice were individually placed in the centre of the chamber and allowed to acclimatize for 15 min. Their paws were contacted or disconnected the active bars which can produce random configurations. The locomotor counts of mice were measured by counting the number of line crossings in the following 10 min.

Sequence of PDE2 (O00408 whole entry): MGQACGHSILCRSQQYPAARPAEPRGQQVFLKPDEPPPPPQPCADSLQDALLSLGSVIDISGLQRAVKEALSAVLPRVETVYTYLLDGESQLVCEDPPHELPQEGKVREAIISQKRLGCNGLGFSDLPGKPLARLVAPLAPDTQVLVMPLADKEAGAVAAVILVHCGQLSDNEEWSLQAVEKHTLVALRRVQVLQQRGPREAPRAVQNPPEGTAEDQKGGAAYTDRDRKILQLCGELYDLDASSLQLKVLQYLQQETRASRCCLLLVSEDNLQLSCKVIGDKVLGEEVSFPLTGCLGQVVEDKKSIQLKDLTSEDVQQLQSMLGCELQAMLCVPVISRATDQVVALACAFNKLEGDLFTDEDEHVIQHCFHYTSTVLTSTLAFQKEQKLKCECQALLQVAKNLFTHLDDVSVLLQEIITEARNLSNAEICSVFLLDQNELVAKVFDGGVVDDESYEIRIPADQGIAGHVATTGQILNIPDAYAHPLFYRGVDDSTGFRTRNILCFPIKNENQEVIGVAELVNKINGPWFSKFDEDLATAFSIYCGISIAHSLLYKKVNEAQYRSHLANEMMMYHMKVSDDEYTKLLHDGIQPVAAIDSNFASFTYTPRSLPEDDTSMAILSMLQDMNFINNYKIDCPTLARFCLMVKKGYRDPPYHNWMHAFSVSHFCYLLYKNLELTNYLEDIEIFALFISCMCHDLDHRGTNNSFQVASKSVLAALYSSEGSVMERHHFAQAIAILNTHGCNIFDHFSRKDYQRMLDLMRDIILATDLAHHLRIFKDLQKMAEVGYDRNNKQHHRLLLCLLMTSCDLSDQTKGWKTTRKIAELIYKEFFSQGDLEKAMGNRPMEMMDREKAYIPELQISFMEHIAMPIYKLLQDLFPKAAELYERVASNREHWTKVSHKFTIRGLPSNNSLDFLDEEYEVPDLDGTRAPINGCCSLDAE

For `CNCCC(Oc1ccc(C(F)(F)F)cc1)c1ccccc1` (stereo not shown) [fluoxetine, Fluoxetine, reference compound], in [1], the “immobility time in forced swimming test” value is recorded as “significant anti-depressant-like effects”.

For orientation: IC50 means the concentration that inhibits the measured activity by half. For `Oc1ccc(/C=C/c2cc(O)cc(O)c2)cc1` [resveratrol, Resveratrol], the IC50 in the data set on PDE1 is 8.7 ± 1.1 µM; in the data set with PDE3, 12.7 ± 2.1 µM; in the data set with PDE4 it was 18.8 µM; on PDE5 it was greater than 100 µM; at PDE2 it was greater than 100 µM.

On to `Oc1ccc(-c2cc(-c3cc(O)cc(O)c3)n[nH]2)cc1` [RES003, 5-[5-(4-Hydroxyphenyl)-1H-pyrazol-3-yl]benzene-1,3-diol], for which, in [2], the “consumption of sugar water (sucrose preference)” value was “significantly increase the consumption of sugar water”. Further, the “ratio of pCREB/CREB in brain tissue” value in the data set with pCREB/CREB is recorded as “reversed”. Further, in the data set with BDNF, the “BDNF expression in brain tissue” value is listed as “significantly upregulated”. The “locomotor activity (line crossings in 10 min)” value with mice is recorded as “did not affect the locomotor activity”. Further, the concentration for half-maximal inhibition (IC50) in the data set on PDE1 is 92.6 ± 8.3 µM; in the data set with PDE3 it was greater than 100 µM; in the data set on PDE4, 0.87 µM; on PDE5 it was greater than 100 µM; at PDE2, greater than 100 µM. Also, the “selectivity for PDE4 over PDE1, PDE2, PDE3 and PDE5” value in the data set with PDE4 (ratio of IC50 values) is greater than 100 fold.
